Laboratory results as given in US20060166984A1, “Amino substituted benzo(hetero)cyclic derivatives” (priority 2003, published 2006).
Where two headings read alike, the source gives them in different places.

Legend:
[1] = system: Green Peach Aphid (myzus persicae); assay: Green Peach Aphid foliar dip test on pepper plants; format: in vivo; conditions: 120 h, read-out: mortality in comparison with untreated controls
Method: Green Peach Aphid (myzus persicae)
(§1) The active compounds were formulated in 50:50 acetone:water and 100 ppm Kinetic® surfactant.
Pepper plants in the 2nd leaf-pair stage (variety ‘California Wonder’) were infested with approximately 40 laboratory-reared aphids by placing infested leaf sections on top of the test plants. The leaf sections were removed after 24 hours. The leaves of the intact plants were dipped into gradient solutions of the test compound and allowed to dry. Test plants were maintained under fluorescent light (24 hour photoperiod) at about 25° C. and […] relative humidity. Aphid mortality on the treated plants, relative to mortality on check plants, was determined after 5 days.

[2] = system: Cotton Aphid (aphis gossypii); assay: Cotton Aphid foliar dip test on cotton cotyledons; format: in vivo; conditions: 120 h, counts after 5 days, read-out: mortality in comparison with untreated controls
Text: Cotton Aphid (aphis gossypii)
The active compounds were formulated in 50:50 acetone:water and 100 ppm Kinetic® surfactant (a nonionic wetting agent which is a blend of polyalkyleneoxide modified polydimethylsiloxane and polyoxypropylene-polyoxyethylene copolymers, available from Helena Chemical Company, Memphis, Tenn. 38119, U.S.A.).
Cotton plants at the cotyledon stage (one plant per pot) were infested by placing a heavily infested leaf from the main colony on top of each cotyledon. The aphids were allowed to transfer to the host plant overnight, and the leaf used to transfer the aphids was removed. The cotyledons were dipped in the test solution and allowed to dry. After 5 days, mortality counts were made.

[3] = system: Twospotted Spider Mite (Tetranychus urticae); assay: Twospotted Spider Mite dip test on lima bean plants; format: in vivo; conditions: 120 h, read-out: mortality compared to untreated controls
Method: Twospotted Spider Mite (Tetranychus urticae)
Lima bean plants in the 1st leaf-pair stage (variety ‘Henderson’) were infested with approximately 100 laboratory-reared mites per leaf by placing infested leaf sections on top of the test plants. The leaf sections were removed after 24 hours. The foliage of the intact plants was dipped into gradient solutions of the test compounds. Mite mortality was determined after 5 days.

Bean Aphid (Aphis fabae) = assay: Bean Aphid dip test on nasturtium plants; format: in vivo; conditions: 72 h, after 3 days, read-out: mortality compared to untreated controls
Method: Nasturtium plants in the 1st leaf-pair stage (variety ‘Mixed Jewle’ were infested with approximately 25 laboratory-reared aphids by placing infested cut plants on top of the test plants. The cut plants were removed after 24 hours. The foliage and stem of the test plants were dipped into gradient solutions of the test compound. Aphid mortality was determined after 3 days.

[4] = system: Silverleaf whitefly (bemisia argentifolii); assay: Silverleaf whitefly test on dipped cotton cotyledons; format: in vivo; conditions: 72 h, whitefly adults on cotton, 3 days after treatment, read-out: mortality compared to untreated controls
Method: Silverleaf whitefly (bemisia argentifolii)
as §1
Selected cotton plants were grown to the cotyledon state (one plant per pot). The cotyledons were dipped into the test solution to provide complete coverage of the foliage and placed in a well-vented area to dry. Each pot with treated seedling was placed in a plastic cup and 10 to 12 whitefly adults (approximately 3-5 day old) were introduced. The cups were covered with a re-usable screened lid (150 micron mesh polyester screen PeCap from Tetko Inc). Test plants were maintained in the holding room at about 25° C. and 20-40% relative humidity for 3 days avoiding direct exposure to the fluorescent light (24 hour photoperiod) to prevent trapping of heat inside the cup.
Mortality was assessed 3 days after treatment of the plants.

[5] = 300 ppm, green peach aphid on pepper, after 5 days
[6] = 300 ppm, spider mite on lima bean, after 5 days

| melting point [°C] | SMILES | mortality at 300 ppm [1, 5] [%] | mortality at 300 ppm [2] [%] | mortality at 300 ppm [3, 6] [%] | other results |
| --- | --- | --- | --- | --- | --- |
| 158 to 160 | CN1CCN(C2=Cc3ccccc3C2)CC1 | – | – | – | – |
| 124 to 126 | CCN1CCN(C2=Cc3ccccc3C2)CC1 | – | – | – | – |
| 68 to 70 | CCN1CCN(C2=CCCc3ccccc32)CC1 | – | – | – | – |
| – | CN1CCN([C@@H]2C[C@@H](c3ccc(F)cc3)c3ccc(Cl)cc32)CC1 (relative stereo) [Compound 61, Trans-1-[3-(4-fluorophenyl)-6-chloro-2,3-dihydro-1H-inden-1-yl]4-methylpiperazine] | > 85 | > 85 | – | – |
| – | CN1CCN(c2cccc3ccccc23)CC1 [Compound 5, 1-Methyl-4-(1-naphthyl)-piperazine] | – | – | – | mortality at 300 ppm [1]: > 85% |
| – | CN1CCN(c2nccc3ccccc23)CC1 [Compound 12, 1-(1-Isoquinolinyl)-4-methylpiperazine] | – | – | – | mortality at 300 ppm [3]: > 70% |
| – | CN1CCN(C2CCc3ccccc3C2)CC1 (stereo not shown) [Compound 14, 1-(1,2,3,4-Tetrahydro-2-naphthalenyl)-4-methylpiperazine] | – | – | > 70 | – |
| – | CN1CCN(C2CCSc3ccc(Cl)cc32)CC1 (stereo not shown) [Compound 16, 1-(6-Chloro-3,4-dihydro-2H-thiochromen-4-yl)-4-methylpiperazine] | > 85 | > 85 | – | mortality at 300 ppm (Bean Aphid (Aphis fabae)): > 70% |
| – | CN1CCN(C2CCCc3ccc(F)cc32)CC1 (stereo not shown) [Compound 20, 1-(7-Fluoro-1,2,3,4-tetrahydro-1-naphthalenyl)-4-methylpiperazine] | > 85 | > 85 | > 70 | mortality at 300 ppm [4]: > 95% |
| – | CN1CCN(C2=CCCc3ccc(F)cc32)CC1 [Compound 21, 1-(7-Fluoro-3,4-dihydro-1-naphthalenyl)-4-methylpiperazine] | – | – | > 70 | – |
